Values of other authors in patent US20170143675A1, “FORMULATIONS FOR TREATMENT OF HYPERTHYROIDISM” (DENDROPHARM GMBH, priority 2014, published 2017).
Like-named read-outs stand apart in the source and are kept apart here.

What was measured:
cats = details: randomized trial

transdermal uptake (after a single dose in PLO): poor
Compound: Cn1ccnc1S [methimazole, 2-mercapto-1-methylimidazole]
cats with gastrointestinal side effects (cats; oral administration): 24%
cats with gastrointestinal side effects (cats; transdermal administration in PLO): 4%
reduction of the serum T4 concentration (chronic transdermal administration in PLO): effective
